Measured values taken from PMC12070228, “Investigations of Enteric-Coated Tablet Propyl Gallate-Induced Nephrotoxicity in Beagles as well as Human and Dog Renal Proximal Tubule Epithelial Cells” (ACS Pharmacology & Translational Science, 2025).
Where two headings read alike, the source gives them in different places.

Legend:
[1] = PG toxicokinetics in dog plasma (LC-MS/MS), studies 001-005; assay type: in vivo; conditions: beagle, po
Protocol: Samples were vortexed and centrifuged before injection.
The total run time was 5.5 min.
The targeted quantitation of PG and phase-I/II metabolites was conducted using peak area ratio of analytes and internal standards in MultiQuant software (SCIEX).
In the follow-up 4-week study (study 003), dogs received EC tablets consisting of the clinical formulation excipients minus PG, clinical formulation excipients minus NaCDC, or PG alone in a gelatin capsule once daily for 26 days. […] Samples for PG toxicokinetics were collected on days 1 and 22 of the dosing-phase at predose (Day 22 only) and 0.5, 1, 2, 4, 6, 8, 12, and 24 h postdose. […] Plasma samples for the measurement of lipopolysaccharide (LPS) were taken twice in the pretest period, predose and 2 h after dosing on Days 15 and 22, and prior to necropsy. LPS concentrations were measured using a qualified sandwich ELISA method (LSBiosciences) with a detection range of 7.82 to 500 pg/mL.
Table S2. Correlation of PG exposure with nephrotoxicity.
AUC0-24 = area under the concentration versus time curve from time 0 to 24 hours; clin = clinical; F = female; M = male; NR = no result due to insufficient data. […]
a Clinical formulation excipients included sodium chenodeoxycholate (Na CDC), propyl gallate (PG), tris(hydroxymethyl)aminomethane (Tris)(except for Study 005), mannitol, crospovidone, aerosil, sodium stearyl fumarate, eudragit, and plasarcryl. b Study 001: Initial 4-week investigational new drug (IND)-enabling good laboratory practice (GLP) study c Study 002: Investigative 4-week study with different excipient combinations d Study 003: Follow-up investigative 4-week study with non-enteric coated capsule e Study 004: 3-month GLP study f Study 005: 9-month GLP study g Day 7 AUC value is presented; AUC could not be calculated for Day 28 samples due to insufficient data. h Minimal nephropathy observed in 2 recovery (4 weeks) group females, but not in main group animals.

[2] = Exposure comparison of PG and phase-I and phase-II metabolites in dog and human plasma; conditions: oral EC MEDI7219 tablets; samples through 8 h; human PG 800 mg (N = 8), dog PG 200 mg/kg/day (N = 6)
Protocol: Dog blood was collected via jugular vein in potassium (K2) EDTA tubes and processed to plasma. Samples were centrifuged at approximately 3000 rpm for 5 min at approximately 4 °C within 30 min of collection. Plasma samples were acidified with 1% (v/v) formic acid (FA) to avoid degradation of PG and metabolites in plasma within 20 min of the start of centrifugation and then stored frozen (≤-60 °C). Acidified plasma was extracted using internal standard-spiked solution (100 mM ammonium bicarbonate: acetonitrile = 1:4). Samples were then centrifuged to collect supernatant, followed by drying to completion. The dried samples were reconstituted with 200 uL of 0.1% (v/v) formic acid in water. Samples were vortexed and centrifuged before injection. In order to assess potential impact of hemolysis on qualification of PG and its metabolites, hemolyzed plasma was prepared by spiking fully hemolyzed whole blood at an indicated percentage into plasma.
Separations were conducted on a reversed-phase column (Phenomenex, Kinetex F5, 2.6 μm 100 Å, 100 × 4.6 mm) at a flow rate of 0.7 mL/min at 40 °C. Mobile phase A was 0.1% formic acid in water and mobile phase B was 0.1% formic acid in methanol. The samples were analyzed on a SCIEX 6500+ QTRAP under negative ESI mode. The total run time was 5.5 min. Eight calibration standards and three quality control (LQC, MQC and HQC) samples were used for quantification.
The primary metabolites of PG were measured in dog and human plasma following oral administration of EC MEDI7219 tablets to examine a potential mechanism of the PG-mediated renal toxicity in dog and its possible translatability to humans. Plasma concentrations of PG, its phase-I metabolites GA and 4OMGA and phase-II glucuronide and glutathione conjugates were measured. The human and dog samples, collected through 8 h after administration, were analyzed and the results were compared (Figure , Figure S5). Based on allometric scaling method the highest daily dose administered in humans was approximately 8-fold less compared with the dose level tested in dogs.
Human (H) data is in black. Dog (D) data is in red (study 002). Concentration (mM) is in log10 scale. Data was normalized to PG dose (mg/kg/day). N = 8 for human (PG dosed at 800 mg with MEDI7219 tablets). N = 6 for dogs (PG dosed at 200 mg/kg/day). Below LLOQ values were set to 1/2 LLOQ for the calculation.

Q: Which results are given for `CCCOC(=O)c1cc(O)c(O)c(O)c1` [PG, propyl gallate]?
A: AUC(0-t) ([1]; 12.5 mg/kg/day, PG 12.5, NaCDC 10, MEDI7219 0.75 mg/kg/day, clin excipients, Study 005 Day 112, read-out: Propyl Gallate Exposure (AUC0-24)): 72 ng·h/mL; AUC(0-t) ([1]; 12.5 mg/kg/day, PG 12.5, NaCDC 10, MEDI7219 0.75 mg/kg/day, clin excipients, Study 005 Day 196, read-out: Propyl Gallate Exposure (AUC0-24)): 88 ng·h/mL; AUC(0-t) ([1]; 12.5 mg/kg/day, PG 12.5, NaCDC 10, MEDI7219 0.75 mg/kg/day, clin excipients, Study 005 Day 266, read-out: Propyl Gallate Exposure (AUC0-24)): 90 ng·h/mL; AUC(0-t) ([1]; 14 mg/kg/day, PG 14, NaCDC 7, MEDI7219 0.4 mg/kg/day, clin excipients, Study 004 Day 78, read-out: Propyl Gallate Exposure (AUC0-24)): 101 ng·h/mL; AUC(0-t) ([1]; 200 mg/kg/day, PG 200, NaCDC 0, MEDI7219 0 mg/kg/day, clin excipients minus NaCDC and Tris, Study 002 Day 14, read-out: Propyl Gallate Exposure (AUC0-24)): 1890 ng·h/mL; AUC(0-t) ([1]; 200 mg/kg/day, PG 200, NaCDC 0, MEDI7219 0 mg/kg/day, clin excipients minus NaCDC and Tris, Study 002 Day 21, read-out: Propyl Gallate Exposure (AUC0-24)): 4840 ng·h/mL; AUC(0-t) ([1]; 200 mg/kg/day, PG 200, NaCDC 0, MEDI7219 0 mg/kg/day, clin excipients minus NaCDC, Study 002 Day 14, read-out: Propyl Gallate Exposure (AUC0-24)): 2580 ng·h/mL; AUC(0-t) ([1]; 200 mg/kg/day, PG 200, NaCDC 0, MEDI7219 0 mg/kg/day, clin excipients minus NaCDC, Study 002 Day 21, read-out: Propyl Gallate Exposure (AUC0-24)): 1850 ng·h/mL; AUC(0-t) ([1]; 200 mg/kg/day, PG 200, NaCDC 0, MEDI7219 0 mg/kg/day, clin excipients minus NaCDC, Study 003 Day 22, read-out: Propyl Gallate Exposure (AUC0-24)): 6290 ng·h/mL; AUC(0-t) ([1]; 200 mg/kg/day, PG 200, NaCDC 0, MEDI7219 0 mg/kg/day, gelatin capsule (PG only), Study 003 Day 22, read-out: Propyl Gallate Exposure (AUC0-24)): 1980 ng·h/mL; AUC(0-t) ([1]; 200 mg/kg/day, PG 200, NaCDC 100, MEDI7219 0 mg/kg/day, clin excipients minus Tris, Study 002 Day 14, read-out: Propyl Gallate Exposure (AUC0-24)): 2760 ng·h/mL; AUC(0-t) ([1]; 200 mg/kg/day, PG 200, NaCDC 100, MEDI7219 0 mg/kg/day, clin excipients minus Tris, Study 002 Day 21, read-out: Propyl Gallate Exposure (AUC0-24)): 1800 ng·h/mL; AUC(0-t) ([1]; 200 mg/kg/day, PG 200, NaCDC 100, MEDI7219 0 mg/kg/day, clin excipients, Study 002 Day 14, read-out: Propyl Gallate Exposure (AUC0-24)): 3250 ng·h/mL; AUC(0-t) ([1]; 200 mg/kg/day, PG 200, NaCDC 100, MEDI7219 2 mg/kg/day, clin excipients, Study 001 Day 28, read-out: Propyl Gallate Exposure (AUC0-24)): 1210 ng·h/mL; AUC(0-t) ([1]; PG 25, NaCDC 20, MEDI7219 0.25 mg/kg/day, clin excipients, Study 005 Day 112, read-out: Propyl Gallate Exposure (AUC0-24)): 135 ng·h/mL; AUC(0-t) ([1]; PG 25, NaCDC 20, MEDI7219 0.25 mg/kg/day, clin excipients, Study 005 Day 196, read-out: Propyl Gallate Exposure (AUC0-24)): 232 ng·h/mL; AUC(0-t) ([1]; PG 36, NaCDC 18, MEDI7219 1.1 mg/kg/day, clin excipients, Study 004 Day 78, read-out: Propyl Gallate Exposure (AUC0-24)): 282 ng·h/mL; AUC(0-t) ([1]; PG 44, NaCDC 22, MEDI7219 0 mg/kg/day, clin excipients, Study 005 Day 196, read-out: Propyl Gallate Exposure (AUC0-24)): 864 ng·h/mL; AUC(0-t) ([1]; PG 44, NaCDC 35, MEDI7219 2.6 mg/kg/day, clin excipients, Study 005 Day 196, read-out: Propyl Gallate Exposure (AUC0-24)): 1870 ng·h/mL; AUC(0-t) ([1]; PG 60, NaCDC 48, MEDI7219 0 mg/kg/day, clin excipients, Study 005 Day 112, read-out: Propyl Gallate Exposure (AUC0-24)): 3610 ng·h/mL; AUC(0-t) ([1]; PG 60, NaCDC 48, MEDI7219 3.6 mg/kg/day, clin excipients, Study 005 Day 112, read-out: Propyl Gallate Exposure (AUC0-24)): 829 ng·h/mL; AUC(0-t) ([1]; PG 76, NaCDC 38, MEDI7219 0.75 mg/kg/day, clin excipients, Study 001 Day 28, read-out: Propyl Gallate Exposure (AUC0-24)): 618 ng·h/mL; AUC(0-t) ([1]; PG 100, NaCDC 50, MEDI7219 0 mg/kg/day, clin excipients, Study 004 Day 78, read-out: Propyl Gallate Exposure (AUC0-24)): 1830 ng·h/mL; AUC(0-t) ([1]; PG 100, NaCDC 50, MEDI7219 3 mg/kg/day, clin excipients, Study 004 Day 78, read-out: Propyl Gallate Exposure (AUC0-24)): 767 ng·h/mL; AUC(0-t) ([1]; PG 200, NaCDC 100, MEDI7219 0 mg/kg/day, clin excipients, Study 001, Day 28 column but Day 7 AUC value is presented (footnote g), read-out: Propyl Gallate Exposure (AUC0-24)): 2560 ng·h/mL; AUC(0-t) ([1]; female, 25 mg/kg/day, female (F), PG 25, NaCDC 20, MEDI7219 0.25 mg/kg/day, clin excipients, Study 005 Day 266, read-out: Propyl Gallate Exposure (AUC0-24)): 986 ng·h/mL; AUC(0-t) ([1]; male, 25 mg/kg/day, male (M), PG 25, NaCDC 20, MEDI7219 0.25 mg/kg/day, clin excipients, Study 005 Day 266, read-out: Propyl Gallate Exposure (AUC0-24)): 158 ng·h/mL; Plasma exposure, humans compared with dogs [2]: comparable between the two species
